Data set [1] relates to HCT-116. Nature of the data set: Cell proliferation inhibition test against c-Met low expressing tumor cells (HCT-116). Type of data set: cell-based. Particulars: for IC50: Homo sapiens; for ratio HCT-116: IC50 HCT-116 relative to IC50 NUGC4.
In data set [2] the test system is HAOSMC (human aortic smooth muscle cell). Nature of the data set: Cell proliferation inhibition test against normal cells HAOSMC. Type of data set: cell-based. The following applies: for IC50: Homo sapiens, 72 h, read-out: IC50 HAOSMC; for ratio HAOSMC: IC50 HAOSMC relative to IC50 NUGC4. As to the method:
[Worded in the source for another cell line; this cell line is reported under the same test.] (§1) The thus-prepared test compound solution was added to each well of the NUGC4 cell culture plate at 0.1 mL/well, and the plate was incubated in an incubator under 5% CO2 gas atmosphere at 37° C. for 3 days. […] Thereafter, the plate was washed with tap water and dried. Then, aqueous 0.05% Crystal Violet/20% methanol solution (product of Wako Pure Chemical Industries Ltd.) was added to each well at 100 μL/well, and the plate was left to stand at room temperature for 20 minutes, whereby cells were stained. Thereafter, the plate was washed with tap water and dried. To each well, 0.05 M NaH2PO4/ethanol (1/1=v/v) (100 μL) was added, to thereby extract Crystal Violet. The absorbance of the extracted Crystal Violet was measured at 540 nm using a microplate reader, and the absorbance was employed as an index for living cell count. […] Percent inhibition (%)=(C−T)/C×100 • T: Absorbance of well to which a test compound was added • C: Absorbance of well to which no test compound was added

Data set [3] can be described thus: Dose determination study (body weight change, maximum tolerated dose). Type of data set: in vivo. The following applies: nude mice, peroral. How it is done:
[…]. The maximum tolerated dose was calculated based on the change in body weight of the mice.
During the administration period, percent body weight change of mice (BWC %) was calculated. […] Thus, the half value of the toxicity expression dose was decided as a maximum tolerated dose.
BWC of mice was calculated by the following equation, and the change in mean BWC of each group during the administration period is shown in FIG. 1. BWC(%)=([(body weight of mouse on the day of weight measurement)−(body weight of mouse at grouping)]/(body weight of mouse at grouping))×100

Data set [4] deals with NUGC4 cells. Briefly: Cell-proliferation inhibitory assay against NUGC4 cells (Crystal Violet). The following applies: Homo sapiens, NUGC-4, 72 h; NUGC4, cancer, c-Met status (+), 3 days. Type of data set: cell-based. As to the method:
Cell-Proliferation Inhibitory Assay Against NUGC4 Cells (Human Gastric Cancer Cell Strain in Which c-Met is Over-Expressed and Highly Activated), In Vitro Test
NUGC4 cell suspension (in a 10% FBS-containing RPMI 1640 medium (product of Wako Pure Chemical Industries Ltd.) or a FBS-containing DMEM medium (product of Nacalai Tesque, Inc.)) was inoculated to each well of a 96-well (flat-bottom) microplate in an amount of 2×10^3 cells (0.1 mL), and the plate was incubated in an incubator under 5% CO2 gas atmosphere at 37° C. for one day. Each of the compounds of the present invention and comparative compound 1 was dissolved in dimethyl sulfoxide to a concentration of 30 mM. The solution was diluted with 10% FBS-containing RPMI 1640 or DMEM medium, to a final test compound concentration of 60, 20, 6, 2, 0.6, or 0.2 μM. The thus-prepared test compound solution was added to each well of the NUGC4 cell culture plate at 0.1 mL/well, and the plate was incubated in an incubator under 5% CO2 gas atmosphere at 37° C. for 3 days. After culturing, 25% aqueous glutaraldehyde solution (product of Nacalai Tesque, Inc.) was added to each well at 20 μL, and the plate was left to stand at room temperature for 20 minutes, whereby cells were fixed. Thereafter, the plate was washed with tap water and dried. Then, aqueous 0.05% Crystal Violet/20% methanol solution (product of Wako Pure Chemical Industries Ltd.) was added to each well at 100 μL/well, and the plate was left to stand at room temperature for 20 minutes, whereby cells were stained. Thereafter, the plate was washed with tap water and dried. To each well, 0.05 M NaH2PO4/ethanol (1/1=v/v) (100 μL) was added, to thereby extract Crystal Violet. The absorbance of the extracted Crystal Violet was measured at 540 nm using a microplate reader, and the absorbance was employed as an index for living cell count. Percent inhibition was calculated by the following equation, and the 50% inhibition test compound concentration (IC50 (μM)) was calculated. Percent inhibition (%)=(C−T)/C×100 • T: Absorbance of well to which a test compound was added • C: Absorbance of well to which no test compound was added

Data set [5] has as its system HMEC (human skin microvascular endothelial cell). Briefly: Cell proliferation inhibition test against normal cells HMEC. Type of data set: cell-based. The following applies: for IC50: Homo sapiens, HMEC, 72 h, read-out: IC50 HMEC; for ratio HMEC: IC50 HMEC relative to IC50 NUGC4. As to the method: [Worded in the source for another cell line; this cell line is reported under the same test.] as §1

Data set [6] has as its target c-Met (Homo sapiens, UniProt P08581). Nature of the data set: c-Met inhibitory assay using AlphaScreen (Method A). Type of data set: biochemical. The following applies: ATP 20 μM. More on the design: purchased Carna bio Co., Ltd 08-051. How it is done:
Inhibitory activity of compounds against c-Met kinase was determined through the following procedures. Method A) c-Met inhibitory assay using AlphaScreen™
A biotinylated peptide including a phosphorylated site of Pyk2 (Tyr402), which is reported as a bio-substrate in Clin. Cancer Res. vol. […] The mixture was allowed to react at room temperature for 20 minutes. EDTA was added to the reaction mixture to a final concentration of 50 mM, to thereby terminate reaction. […] The reaction was done for one hour at room temperature. Thereafter, the fluorescence intensity from the reaction mixture was measured using a multi-label counter (EnVision™, Perkin Elmer).

The mark [7] stands for this setting: HCT-116, 72 h, read-out: IC50 HCT-116.
Where [8] appears, read: 72 h, HCT-116, cancer, c-Met status (−), 3 days, read-out: IC50 HCT-116.
Where [9] appears, read: HAOSMC, normal, c-Met status (−), 3 days.
Where [10] appears, read: normal, c-Met status (−), 3 days.

The structures appear in SMILES notation. Like-named read-outs stand apart in the source and are kept apart here. Some results are limits rather than exact numbers.

For orientation: IC50 means the concentration that gives 50% inhibition. Usually MTD stands for the largest dose that counted as tolerated.

Sequence of c-Met (P08581 956-1390 limits assumed): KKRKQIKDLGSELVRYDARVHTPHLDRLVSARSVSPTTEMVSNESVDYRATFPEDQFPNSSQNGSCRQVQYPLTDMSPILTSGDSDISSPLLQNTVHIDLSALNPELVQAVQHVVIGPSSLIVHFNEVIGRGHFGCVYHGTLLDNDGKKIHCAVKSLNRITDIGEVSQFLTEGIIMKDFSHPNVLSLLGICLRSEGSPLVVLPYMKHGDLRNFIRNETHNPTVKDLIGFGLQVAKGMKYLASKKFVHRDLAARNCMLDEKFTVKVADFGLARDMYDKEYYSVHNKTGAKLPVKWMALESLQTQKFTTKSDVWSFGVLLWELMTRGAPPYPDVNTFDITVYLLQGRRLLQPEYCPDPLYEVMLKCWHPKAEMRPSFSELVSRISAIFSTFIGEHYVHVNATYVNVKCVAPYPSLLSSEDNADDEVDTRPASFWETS

On to `COc1cc2nccc(Oc3ccc(NC(=S)NC(=O)Cc4ccccc4)cc3F)c2cc1OC` [Comp. Ex. 1, reference compound], for which the IC50 is 17 µM in data set [1] (setting [7]); 15 to 24 µM in data set [1] (HCT-116, read-out: IC50 to c-Met low expressing and normal cell strains); 24 µM in data set [2]; 0.2 µM in data set [4]; 15 µM in data set [5]. Further, the MTD at 14 days in data set [3] (mouse, in vivo, oral, half value of the toxicity expression dose) came to 100 mg/kg. In data set [3] (14 days, dose with ≧10% reduction in mean BWC), this compound registered a toxicity expression dose of 200 mg/kg. Also, the body weight change entry in data set [3] (once a day, 14 days, 100 mg/kg) was “no decrease in body weight was observed”. The “decrease in BWC” value in data set [3] (once a day, 14 days, 200 mg/kg) is listed as above 10%.
As for `COc1cc2nccc(Oc3ccc(NC(=S)NC(=O)Cc4ccccc4)cc3F)c2cc1C(=O)NCCCN1CCCC1=O` [Example 5, 4-(2-Fluoro-4-(3-(2-phenylacetyl)thioureido)phenoxy)-7-methoxy-N-(3-(2-oxopyrrolidin-1-yl)propyl)quinoline-6-carboxamide], the IC50 in data set [1] (setting [8]) was 29 µM; in data set [2] (setting [9]) it was above 30 µM; in data set [6], 0.116 µM; in data set [4], 0.03 µM; in data set [5] (setting [10]), 23 µM. Further, the “ratio HCT-116” value in data set [1] is recorded as 857. Also, the “ratio HAOSMC” value in data set [2] was above 879. The “ratio HMEC” value in data set [5] came to 681.
Turning to `CCNC(=O)N1CCC(NC(=O)c2cc3c(Oc4ccc(NC(=S)NC(=O)Cc5ccccc5)cc4F)ccnc3cc2OC)CC1` [Example 15, N-(1-(Ethylcarbamoyl)piperidin-4-yl)-4-(2-fluoro-4-(3-(2-phenylacetyl)thioureido)phenoxy)-7-methoxyquinoline-6-carboxamide], the IC50 is above 30 µM in data set [1] (setting [8]); above 30 µM in data set [2] (setting [9]); 0.138 µM in data set [6]; 0.02 µM in data set [4]; above 30 µM in data set [5] (setting [10]). Also, the “ratio HCT-116” value in data set [1] is on record as above 1584. Besides, in data set [2], the “ratio HAOSMC” value is listed as above 1584. The “ratio HMEC” value in data set [5] was above 1584.
Take `COc1cc2nccc(Oc3ccc(NC(=S)NC(=O)Cc4ccc(F)cc4)cc3F)c2cc1C(=O)NC1CCCCNC1=O` (centres unmarked) [Example 19, 4-(2-Fluoro-4-(3-(2-(4-fluorophenyl)acetyl)thioureido)phenoxy)-7-methoxy-N-(2-oxoazepan-3-yl)quinoline-6-carboxamide]: the IC50 in data set [1] (setting [8]) was above 30 µM; in data set [2] (setting [9]) it was above 30 µM; in data set [6], 0.338 µM; in data set [4], 0.01 µM; in data set [5] (setting [10]), 18 µM. Besides, in data set [1], the “ratio HCT-116” value is above 3000. The “ratio HAOSMC” value in data set [2] was above 3000. In addition, in data set [5], the “ratio HMEC” value is recorded as 3000.
Regarding `COc1cc2nccc(Oc3ccc(NC(=S)NC(=O)Cc4ccccc4)cc3F)c2cc1C(=O)NCC(=O)N1CCOCC1` [Example 21, 4-(2-Fluoro-4-(3-(2-phenylacetyl)thioureido)phenoxy)-7-methoxy-N-(2-morpholino-2-oxoethyl)quinoline-6-carboxamide], the 50% inhibitory concentration (IC50) in data set [1] (setting [8]) is above 30 µM; in data set [2] (setting [9]), above 30 µM; in data set [6] it was 0.118 µM; in data set [4] it was 0.01 µM; in data set [5] (setting [10]), 5 µM. For the same compound, the “ratio HCT-116” value in data set [1] is on record as above 3000. Further, the “ratio HAOSMC” value in data set [2] is above 3000. For the same compound, in data set [5], the “ratio HMEC” value is 3000.
As for `COc1cc2nccc(Oc3ccc(NC(=S)NC(=O)Cc4ccccc4)cc3F)c2cc1C(=O)NCC(=O)N(C)C` [Example 22, N-(2-(Dimethylamino)-2-oxoethyl)-4-(2-fluoro-4-(3-(2-phenylacetyl)thioureido)phenoxy)-7-methoxyquinoline-6-carboxamide], the half-inhibitory concentration (IC50) was above 30 µM in data set [1] (setting [8]); above 30 µM in data set [2] (setting [9]); 0.25 µM in data set [6]; 0.01 µM in data set [4]; above 30 µM in data set [5] (setting [10]). Besides, the “ratio HCT-116” value in data set [1] was above 3000. For the same compound, the “ratio HAOSMC” value in data set [2] was above 3000. Besides, the “ratio HMEC” value in data set [5] is recorded as above 3000.
For the compound `COc1cc2nccc(Oc3ccc(NC(=S)NC(=O)Cc4ccccc4)cc3F)c2cc1C(=O)NCC(C)(C)O` [Example 24, 4-(2-Fluoro-4-(3-(2-phenylacetyl)thioureido)phenoxy)-N-(2-hydroxy-2-methylpropyl)-7-methoxyquinoline-6-carboxamide], the IC50 was 23 µM in data set [1] (setting [7]); above 30 µM in data set [2]; 0.033 µM in data set [6]; 0.02 µM in data set [4]; 16 µM in data set [5]. The “ratio HCT-116” value in data set [1] was 1181. The “ratio HAOSMC” value in data set [2] is reported as above 1552. The “ratio HMEC” value in data set [5] is 1552.
Regarding `COc1cc2nccc(Oc3ccc(NC(=S)NC(=O)Cc4ccccc4)cc3F)c2cc1C(=O)NCCS(C)(=O)=O` [Example 27, 4-(2-Fluoro-4-(3-(2-phenylacetyl)thioureido)phenoxy)-7-methoxy-N-(2-(methylsulfonyl)ethyl)quinoline-6-carboxamide], the IC50 in data set [1] (setting [8]) was 11 µM; in data set [2] (setting [9]), above 30 µM; in data set [6] it was 0.059 µM; in data set [4] it was 0.02 µM; in data set [5] (setting [10]) it was 14 µM. In addition, in data set [1], the “ratio HCT-116” value is reported as 714. Also, the “ratio HAOSMC” value in data set [2] is given as above 1893. Moreover, the “ratio HMEC” value in data set [5] worked out at 1894.

Values taken from patent US8304427B2, “Acylthiourea compound or salt thereof, and use thereof” (Taiho Pharmaceutical Co., Ltd., priority 2008, dated 2012).
